Experimental findings from US8466176B2 (priority 2008, dated 2013) are described below.

This data set can be described thus: logP(HCOOH) reported with HPLC/MS.
Where [1] appears, read: method [b]: LC-MS, pH 2.7 with 0.1% formic acid in water and acetonitrile (0.1% formic acid), linear gradient 10% to 95% acetonitrile.
The mark [2] stands for this setting: method [a]: HPLC on reversed phase columns, pH 2.3 with 0.1% phosphoric acid and acetonitrile as eluent.
The mark [3] stands for this setting: HCOOH (formic acid), logP(HCOOH), HPLC/MS.
Setting [4] is: reversed phase HPLC column, pH 2.7, log p, method [b]: LC-MS at pH 2.7, 0.1% formic acid in water and acetonitrile, linear gradient 10% to 95% acetonitrile.
Where [5] appears, read: method [b]: LC-MS at pH 2.7, 0.1% formic acid in water and acetonitrile, linear gradient 10% to 95% acetonitrile.
Setting [6] is: method [b]: LC-MS at pH 2.7 with 0.1% formic acid in water and acetonitrile (0.1% formic acid), linear gradient 10% to 95% acetonitrile.

For the molecule `Cc1sc(C#CC(C)C)nc1CON=C(c1ccccc1)c1nnnn1C` [Example 189], the log p under setting [1] is 4.21^[b].

`Cn1nnnc1C(=NOCc1cccc(NC/C=C/C#CC(C)(C)C)n1)c1ccccc1` [Example 158]: the log p under setting [2] is 3.25^[a].

Regarding `CCCCOc1ccc(C#Cc2nc(CON=C(c3ccccc3)c3nnnn3C)cs2)cc1` [Example 258], the log p under setting [1] is 5.44^[b].

In the case of `Cn1nnnc1C(=NOCc1cccc(NCC2CC2(Cl)Cl)n1)c1ccccc1` (centres unmarked) [Example 205], the log p under setting [1] was 2.75^[b].

Consider `CN(C)c1ccc(C#Cc2cccc(CON=C(c3ccccc3)c3nnnn3C)n2)cc1` [Example 251], for which the log p under setting [1] was 4.29^[b].

One may read the chromatographic logP as a lipophilicity value derived from retention on a column. A lower chromatographic logP goes with a more hydrophilic compound. With `CCCCCC(=O)NCc1cccc(CON=C(c2ccccc2)c2nnnn2C)n1` [Example 53, N-({6-[({[(1-methyl-1H-tetrazol-5-yl)(phenyl)methylene]amino}oxy)methyl]pyridin-2-yl}methyl)hexanamide], the chromatographic logP is, setting by setting: under setting [3], 2.88; under setting [4], 2.88.

In the case of `Cc1nnnn1C(=NOCc1csc(C#CCCCC#N)n1)c1ccccc1` [Example 171], the log p under setting [1] is 3.02^[b].

For `CCCCCC#Cc1nc(CON=C(c2ccccc2)n2nnnc2C)cs1` [Example 167], under setting [1], the log p was 4.92^[b].

In the case of `Cn1nnnc1C(=NOCc1csc(NCC2CC2)n1)c1ccccc1` [Example 162], the log p under setting [1] is 2.26^[b].

In the case of `CSc1cccc(C(=O)c2nnnn2C)c1` [[3-(methylsulfanyl)phenyl](1-methyl-1H-tetrazol-5-yl)methanone], the chromatographic logP under setting [3] worked out at 2.52.

Turning to `Cc1sc(C#CCC2CCCC2)nc1CON=C(c1ccccc1)c1nnnn1C` [Example 185], under setting [1], the log p was 5.2^[b].

For `Cn1nnnc1C(=NOCc1cccc(CNC(=O)Cc2ccccc2)n1)c1ccccc1` [Example 54], under setting [5], the log p was 2.7^[b].

Take `Cc1cccc(NC=O)n1` [N-(6-methylpyridin-2-yl)formamide]: the chromatographic logP (logP(HCOOH), HPLC/MS) was 0.45.

Turning to `Cn1nnnc1C(=NOCc1nc(C#CC2CCCCC2)ccc1F)c1ccccc1` [Example 108], the log p under setting [5] is 4.92^[b].

As for `Cn1nnnc1C(=NOCc1cccc(NC2CC3CCC2C3)n1)c1ccccc1` (centres unmarked) [Example 300], the log p under setting [6] is 2.45^[b].

`Cn1nnnc1C(=NOCc1cccc(C#CCN2CCOCC2)n1)c1ccccc1` [Example 242]: the log p under setting [1] is 1.44^[b].

Take `COc1ccc(CON=C(c2ccccc2)c2nnnn2C)nc1C#CCCCC#N` [Example 135]: under setting [1], the log p is 2.82^[b].

For `CN(C)c1cccc(C(=NOCc2cccc(N)n2)c2nnnn2C)c1` [6-{[({[3-(dimethylamino)phenyl](1-methyl-1H-tetrazol-5-yl)methylene}amino)oxy]methyl}pyridin-2-amine], the chromatographic logP under setting [3] is 1.19.

For the molecule `Cn1nnnc1C(=NOCc1nc(C#CCCCC#N)sc1Cl)c1ccccc1` [Example 122], under setting [5], the log p is 3.58^[b].

Take `CCCCON(C(=O)OC(C)(C)C)c1cccc(CON=C(c2ccccc2)c2nnnn2C)n1` [Example 280]: under setting [6], the log p was 4.75^[b].

The molecule `CSc1cccc(C(=NOCc2csc(C#CC3CCCC3)n2)c2nnnn2C)c1` [Example 302] yielded a chromatographic logP (reversed phase HPLC column, pH 2.7, log p, method [b]: LC-MS at pH 2.7 with 0.1% formic acid in water and acetonitrile (0.1% formic acid), linear gradient 10% to 95% acetonitrile) of 4.86.

For `CC(C)c1nc(CON=C(c2ccccc2)c2nnnn2C)cs1` [Example 78], the log p under setting [5] is 3.39^[b].

Consider `Cn1nnnc1C(=NOCc1cccc(CNC(=O)C(C)(C)C)n1)c1ccccc1` [Example 55], for which the log p under setting [5] is 2.58^[b].

Take `Cn1nnnc1C(=NOCc1cccc(N(OCCc2ccccc2)C(=O)OC(C)(C)C)n1)c1ccccc1` [Example 281]: the log p under setting [6] is 4.89^[b].

For `CC(=O)N(CCC1CCCCC1)c1cccc(CON=C(c2ccccc2)c2nnnn2C)n1` [Example 76], the log p under setting [5] is 4.16^[b].

On to `CCC(=O)OCC#Cc1cccc(CON=C(c2ccccc2)c2nnnn2C)n1` [Example 254], for which, under setting [1], the log p was 3.29^[b].

`Cn1nnnc1C(=NOCc1cccc(N(OCC2CCCCC2)C(=O)OC(C)(C)C)n1)c1ccccc1` [Example 283]: the log p under setting [6] is 6.25[b].

`Cc1sc(C#CC2CCCC2)nc1CON=C(c1ccccc1)c1nnnn1C` [Example 190]: the log p under setting [1] is 4.75^[b].

For the molecule `CCCCC#Cc1nc(CON=C(c2ccccc2)c2nnnn2C)ccc1OC` [Example 127], the log p under setting [5] is 3.96^[b].

As to `COc1ccc(CON=C(c2ccccc2)c2nnnn2C)nc1C#CCCCc1ccccc1` [Example 130], the log p under setting [5] was 4.44^[b].

For the molecule `CSc1cccc(C(=NOCc2cccc(N3C(=O)c4ccccc4C3=O)n2)c2nnnn2C)c1` [2-(6-{[({[3-(methylsulfanyl)phenyl](1-methyl-1H-tetrazol-5-yl)methylene}amino)oxy]methyl}pyridin-2-yl)-1H-isoindole-1,3(2H)-dione], the chromatographic logP (logP(HCOOH), HPLC/MS) was found to be 3.39.

As for `Cn1nnnc1C(=NOCc1cccc(C#Cc2ccccc2C(F)(F)F)n1)c1ccccc1` [Example 219], under setting [1], the log p was 4.44^[b].

For the molecule `CCCOc1ccc(C#Cc2cccc(CON=C(c3ccccc3)c3nnnn3C)n2)cc1` [Example 246], under setting [1], the log p was 4.86^[b].

`Cn1nnnc1C(=NOCc1cccc(C#Cc2ccccc2F)n1)c1ccccc1` [Example 247]: under setting [1], the log p is 4.06^[b].

Consider `Cn1nnnc1C(=NOCc1nc(Br)ccc1F)c1ccccc1` [Example 96, N-[(6-bromo-3-fluoro-pyridin-2-yl)methoxy]-1-(1-methyl-1H-tetrazol-5-yl)-1-phenylmethanimine], for which the chromatographic logP reads like this: (formic acid (HCOOH), logP(HCOOH), HPLC/MS) 3.27; under setting [4], 3.27.

As for `Cc1nnnn1C(=NOCc1cccc(C(=O)O)n1)c1ccccc1` [Example 15], under setting [5], the log p is 1.97^[b].

In the case of `Cn1nnnc1C(=NOCc1cccc(C#Cc2cccc(OC(F)(F)F)c2)n1)c1ccccc1` [Example 249], under setting [1], the log p was 4.75^[b].

For `Cn1nnnc1C(=NOCc1cccc(N(CCC2CC(F)(F)C2(F)F)C(=O)OC(C)(C)C)n1)c1ccccc1` (centres unmarked) [Example 140], under setting [2], the log p is 5.05^[a].

As for `CC(C)CCC#Cc1ccc(F)c(CON=C(c2ccccc2)c2nnnn2C)n1` [Example 101], the log p under setting [5] is 3.13^[b].

Regarding `Cn1nnnc1C(=NOCc1cccc(C#CCCC2CCCCC2)n1)c1ccccc1` [Example 237], under setting [1], the log p was 5.62^[b].

Consider `Cn1nnnc1C(=NOCc1csc(C#Cc2ccccc2F)n1)c1ccccc1` [Example 260], for which, under setting [1], the log p is 4.15^[b].

As to `Cc1nnnn1C(=NOCc1csc(C#CCCc2ccccc2)n1)c1ccccc1` [Example 168], the log p under setting [1] was 4.44^[b].

`CCCCCONc1cccc(CON=C(c2ccccc2)c2nnnn2C)n1` [Example 269, 6-[({[(1-methyl-1H-tetrazol-5-yl)(phenyl)methylene]amino}oxy)methyl]-(pentyloxy)pyridin-2-amine]: the “logP(HCOOH)” value (HPLC/MS) was 3.87. For the same molecule, the log p under setting [6] was 3.87^[b].

Consider `Cn1nnnc1C(=NOCc1ncc(C(F)(F)F)cc1Cl)c1ccccc1` [Example 43], for which the log p under setting [5] is 3.76^[b].

Take `CCCCCN(C)C(=O)c1cccc(CON=C(c2ccccc2)c2nnnn2C)n1` [Example 85]: under setting [5], the log p was 3.29^[b].

As to `CSc1cccc(C(=NOCc2cccc(NCC3CCCCC3)n2)c2nnnn2C)c1` [Example 292], the log p under setting [6] is 3.02^[b].

On to `Cn1nnnc1C(=NOCc1csc(C#CCCO)n1)c1ccccc1` [Example 198], for which, under setting [1], the log p was 2.3^[b].

Regarding `Cn1nnnc1C(=NOCc1csc(C#Cc2cccc(OC(F)(F)F)c2)n1)c1ccccc1` [Example 265], under setting [1], the log p was 4.81^[b].

On to `CC(C)CC(=O)NCc1cccc(CON=C(c2ccccc2)c2nnnn2C)n1` [Example 56], for which the log p under setting [5] was 2.51^[b].

Under setting [3], `CSc1cccc(C(=NOCc2csc(N)n2)c2nnnn2C)c1` [4-{[({[3-(methylsulfanyl)phenyl](1-methyl-1H-tetrazol-5-yl)methylene}amino)oxy]methyl}-1,3-thiazol-2-amine] returned a chromatographic logP of 1.76.

For the molecule `Cn1nnnc1C(=NOCc1nc(C#CCC2CCCC2)ccc1F)c1ccccc1` [Example 98], the log p under setting [5] is 4.92^[b].

`CON(C)C(=O)c1cccc(N(C)C)c1` [3-(dimethylamino)-N-methoxy-N-methylbenzamide] displayed a chromatographic logP under setting [3] of 0.95.

`CCCC#Cc1nc(CON=C(c2cccc(F)c2)c2nnnn2C)cs1` [Example 151]: the log p under setting [1] is 4.09^[b].

On to `CCCCCCNc1cccc(CON=C(c2cccc(SC)c2)c2nnnn2C)n1` [Example 296], for which, under setting [6], the log p is 2.78^[b].

`CC(C)(C)OC(=O)Nc1cccc(C=O)n1` [tert-butyl (6-formylpyridin-2-yl)carbamate]: the chromatographic logP (logP(HCOOH), HPLC/MS) is 2.44.

Take `C=CCNC(=S)Nc1cccc(CON=C(c2ccccc2)n2nnnc2C)n1` [Example 11]: the log p under setting [5] was 3.09^[b].

For `CCSCC#Cc1cccc(CON=C(c2ccccc2)c2nnnn2C)n1` [Example 243], the log p under setting [1] is 3.69^[b].

In the case of `CCOCCOCCNc1cccc(CON=C(c2ccccc2)c2nnnn2C)n1` [Example 197], the log p under setting [2] was 1.7^[a].

Turning to `Cc1nnnn1C(=NOCc1cccc(NC(=S)NCc2ccccc2)n1)c1ccccc1` [Example 10], the log p under setting [5] was 3.52^[b].

On to `Cn1nnnc1C(=NOCc1nc(C#CCOc2ccccc2)ccc1F)c1ccccc1` [Example 106], for which the log p under setting [5] is 4.04^[b].

With `Cn1nnnc1C(=NOCc1cccc(C#CCn2ccc(C(F)(F)F)n2)n1)c1ccccc1` [Example 110], the log p under setting [5] is 3.62^[b].

Consider `O=C1c2ccccc2C(=O)N1Cc1cccc(CCl)n1` [2-{[6-(chloromethyl)pyridin-2-yl]methyl}-1H-isoindole-1,3(2H)-dione], for which the chromatographic logP under setting [3] is 2.51.
